Measurements taken from PubChem BioAssay (NCI).
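Compound exposure: 48 hours, 5 concentrations, 96-well plates. TGI denotes the concentration required for complete inhibition of growth.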

Columns and labels:
Assay in all cases: NCI tumour cell line growth inhibition, 48 h
OVCAR-3 ovarian = test system: OVCAR-3 ovarian
ACHN renal = test system: ACHN renal
OVCAR-8 ovarian = test system: OVCAR-8 ovarian
MCF7 breast = test system: MCF7 breast
HT29 colon = test system: HT29 colon
SNB-19 CNS = test system: SNB-19 CNS
MDA-MB-231 breast = test system: MDA-MB-231 breast
BT-549 breast = test system: BT-549 breast
MALME-3M melanoma = test system: MALME-3M melanoma
U251 CNS = test system: U251 CNS
UACC-62 melanoma = test system: UACC-62 melanoma
KM12 colon = test system: KM12 colon
HS 578T breast = test system: HS 578T breast
NCI-H460 lung = test system: NCI-H460 lung
SF-268 CNS = test system: SF-268 CNS
RPMI-8226 leukemia = test system: RPMI-8226 leukemia
A549 NSCLC = test system: A549 NSCLC
TK-10 renal = test system: TK-10 renal
NCI-H226 lung = test system: NCI-H226 lung
CAKI-1 renal = test system: CAKI-1 renal
PC-3 prostate = test system: PC-3 prostate
EKVX NSCLC = test system: EKVX NSCLC
HCT-116 colon = test system: HCT-116 colon
OVCAR-4 ovarian = test system: OVCAR-4 ovarian
NCI/ADR-RES ovarian = test system: NCI/ADR-RES ovarian
CCRF-CEM leukemia = test system: CCRF-CEM leukemia
RXF 393 renal = test system: RXF 393 renal
SR leukemia = test system: SR leukemia
SW-620 colon = test system: SW-620 colon
UACC-257 melanoma = test system: UACC-257 melanoma
UO-31 renal = test system: UO-31 renal
786-0 renal = test system: 786-0 renal
SK-MEL-5 melanoma = test system: SK-MEL-5 melanoma
HCC-2998 colon = test system: HCC-2998 colon
T-47D breast = test system: T-47D breast
OVCAR-5 ovarian = test system: OVCAR-5 ovarian
MDA-MB-435 = test system: MDA-MB-435
M14 melanoma = test system: M14 melanoma
SN12C renal = test system: SN12C renal
K-562 leukemia = test system: K-562 leukemia
MOLT-4 leukemia = test system: MOLT-4 leukemia
COLO 205 colon = test system: COLO 205 colon
MDA-N = test system: MDA-N
SK-MEL-2 melanoma = test system: SK-MEL-2 melanoma
A498 renal = test system: A498 renal
SK-OV-3 ovarian = test system: SK-OV-3 ovarian
SK-MEL-28 melanoma = test system: SK-MEL-28 melanoma
SNB-75 CNS = test system: SNB-75 CNS
HOP-62 NSCLC = test system: HOP-62 NSCLC
IGROV1 ovarian = test system: IGROV1 ovarian
SF-295 CNS = test system: SF-295 CNS
LOX IMVI melanoma = test system: LOX IMVI melanoma
DU-145 prostate = test system: DU-145 prostate
NCI-H522 lung = test system: NCI-H522 lung
HCT-15 colon = test system: HCT-15 colon

Measured: TGI

NNC1=Nc2ccc(Cl)cc2C(=S)N2CSCC12 (stereo not given)
> 100 µM: OVCAR-3 ovarian | ACHN renal | OVCAR-8 ovarian | MCF7 breast | HT29 colon | SNB-19 CNS | MDA-MB-231 breast | BT-549 breast | MALME-3M melanoma | U251 CNS | UACC-62 melanoma | KM12 colon | HS 578T breast | NCI-H460 lung | SF-268 CNS | RPMI-8226 leukemia | A549 NSCLC | TK-10 renal | NCI-H226 lung | CAKI-1 renal | PC-3 prostate | EKVX NSCLC | HCT-116 colon | OVCAR-4 ovarian | NCI/ADR-RES ovarian | CCRF-CEM leukemia | RXF 393 renal | SR leukemia | SW-620 colon | UACC-257 melanoma | UO-31 renal | 786-0 renal | SK-MEL-5 melanoma | HCC-2998 colon | T-47D breast | OVCAR-5 ovarian | MDA-MB-435 | M14 melanoma | SN12C renal | K-562 leukemia | MOLT-4 leukemia | COLO 205 colon | MDA-N | SK-MEL-2 melanoma | A498 renal | SK-OV-3 ovarian | SK-MEL-28 melanoma | SNB-75 CNS | HOP-62 NSCLC | IGROV1 ovarian | SF-295 CNS | LOX IMVI melanoma | DU-145 prostate | NCI-H522 lung | HCT-15 colon
